Assays:
[1] = test system: KP1005 CTX-M-14; assay: Tigemonam potentiation (MPC@4), strain KP1005 CTX-M-14
[2] = test system: KP1010 SHV-12; assay: Tigemonam potentiation (MPC@4), strain KP1010 SHV-12
[3] = test system: ec302 TEM-10; assay: Tigemonam potentiation (MPC@4), strain ec302 TEM-10; format: cell-based
[4] = test system: EC1010 CMY-6; assay: Tigemonam potentiation (MPC@4), strain EC1010 CMY-6; format: cell-based
[5] = test system: ECL1002; assay: Tigemonam potentiation (MPC@4), strain ECL1002; format: cell-based
[6] = test system: ec308 SHV-5; assay: Tigemonam potentiation (MPC@4), strain ec308 SHV-5; format: cell-based
[7] = test system: KP1009 CTX-M-15; assay: Tigemonam potentiation (MPC@4), strain KP1009 CTX-M-15
[8] = test system: KP1009 CTX-M-15; assay: Aztreonam potentiation (MPC@4), strain KP1009 CTX-M-15; details: minimum BLI concentration inhibiting growth with aztreonam 4 μg/mL; tested up to 40 μg/mL
[9] = test system: KP1086 OXA-48; assay: Biapenem potentiation (MPC@1), strain KP1086 OXA-48; format: cell-based; details: minimum BLI concentration inhibiting growth with biapenem 1 μg/mL; tested up to 40 μg/mL
Procedure: (§1) Biapenem was present in the test medium at 1 μg/mL. […] Table 3 summarizes the BLI potency of biapenem potentiation (MPC@1) for two strains overexpressing class A (KPC) and class D (OXA-48) carbapenemases. Biapenem MIC for each strain is also shown.

[10] = test system: KP1010 SHV-12; assay: Aztreonam potentiation (MPC@4), strain KP1010 SHV-12; details: minimum BLI concentration inhibiting growth with aztreonam 4 μg/mL; tested up to 40 μg/mL
[11] = test system: ec302 TEM-10; assay: Aztreonam potentiation (MPC@4), strain ec302 TEM-10; details: minimum BLI concentration inhibiting growth with aztreonam 4 μg/mL; tested up to 40 μg/mL
[12] = test system: KP1004 KPC-2; assay: Biapenem potentiation (MPC@1), strain KP1004 KPC-2; format: cell-based; details: minimum BLI concentration inhibiting growth with biapenem 1 μg/mL; tested up to 40 μg/mL
Procedure: as §1

[13] = target: purified class A, C and D enzymes (β-lactamases) (Klebsiella pneumoniae, UniProt Q6XEC0); assay: biochemical; format: biochemical; details: purified OXA-48; nitrocefin (NCF) as reporter substrate
[14] = target: T1, purified class A, C and D enzymes (β-lactamases) (Acinetobacter baumannii, UniProt Q9L4P2); assay: biochemical; format: biochemical; details: purified OXA-23; nitrocefin (NCF) as reporter substrate
T1 construct: rows headed: Ki (OXA-23, NCF), uM; other: purified OXA-23; nitrocefin (NCF) as reporter substrate
T1 sequence (Q9L4P2 whole entry): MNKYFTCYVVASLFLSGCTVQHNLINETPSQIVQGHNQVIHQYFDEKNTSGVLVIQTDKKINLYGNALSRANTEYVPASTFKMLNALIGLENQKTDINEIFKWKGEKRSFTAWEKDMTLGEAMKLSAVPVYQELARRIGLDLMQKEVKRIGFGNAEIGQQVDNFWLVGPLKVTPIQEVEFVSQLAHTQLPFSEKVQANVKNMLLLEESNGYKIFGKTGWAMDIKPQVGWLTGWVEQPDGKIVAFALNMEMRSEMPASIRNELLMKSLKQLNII

[15] = target: T2, purified class A, C and D enzymes (β-lactamases) (UniProt P0AD64, L31Q/G234S/E235K, species not given); assay: biochemical; format: biochemical; details: purified SHV-12; nitrocefin (NCF) as reporter substrate; read-out: Ki (SHV-12, NCF)
T2 construct: Ki (SHV-12, NCF), uM; other: purified SHV-12; nitrocefin (NCF) as reporter substrate
T2 sequence (P0AD64 1-286 L31Q/G234S/E235K): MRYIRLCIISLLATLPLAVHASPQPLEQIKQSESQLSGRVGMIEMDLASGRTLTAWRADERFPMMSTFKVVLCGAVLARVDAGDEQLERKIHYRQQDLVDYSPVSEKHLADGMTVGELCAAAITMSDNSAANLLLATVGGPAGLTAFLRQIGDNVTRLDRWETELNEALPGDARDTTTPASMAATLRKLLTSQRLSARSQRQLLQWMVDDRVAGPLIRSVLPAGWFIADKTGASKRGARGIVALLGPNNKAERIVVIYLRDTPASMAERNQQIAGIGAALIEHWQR

[16] = target: purified class A, C and D enzymes (β-lactamases) (UniProt P62593, R162S/E237K, species not given); assay: biochemical; format: biochemical; details: purified TEM-10; nitrocefin (NCF) as reporter substrate
[17] = target: purified class A, C and D enzymes (β-lactamases) (Escherichia coli, UniProt Q9L5C7); assay: biochemical; format: biochemical; details: purified CTX-M-14; nitrocefin (NCF) as reporter substrate
Chain of purified class A, C and D enzymes (β-lactamases) (Escherichia coli, UniProt Q9L5C7) (Q9L5C7 entry or part of it): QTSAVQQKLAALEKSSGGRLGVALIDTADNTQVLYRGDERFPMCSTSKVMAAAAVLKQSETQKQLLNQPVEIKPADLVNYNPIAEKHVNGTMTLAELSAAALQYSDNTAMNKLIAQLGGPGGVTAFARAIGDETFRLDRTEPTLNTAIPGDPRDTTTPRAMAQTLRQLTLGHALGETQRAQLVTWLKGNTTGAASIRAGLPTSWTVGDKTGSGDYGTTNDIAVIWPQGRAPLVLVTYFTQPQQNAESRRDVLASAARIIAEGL

[18] = target: purified class A, C and D enzymes (β-lactamases) (Klebsiella pneumoniae, UniProt Q9F663); assay: biochemical; format: biochemical; details: purified KPC-2; nitrocefin (NCF) as reporter substrate
[19] = test system: EC1010 CMY-6; assay: Aztreonam potentiation (MPC@4), strain EC1010 CMY-6; details: minimum BLI concentration inhibiting growth with aztreonam 4 μg/mL; tested up to 40 μg/mL
[20] = test system: KP1004 KPC-2; assay: Aztreonam potentiation (MPC@4), strain KP1004 KPC-2; details: minimum BLI concentration inhibiting growth with aztreonam 4 μg/mL; tested up to 40 μg/mL
[21] = test system: KP1005 CTX-M-14; assay: Aztreonam potentiation (MPC@4), strain KP1005 CTX-M-14; details: minimum BLI concentration inhibiting growth with aztreonam 4 μg/mL; tested up to 40 μg/mL
[22] = test system: AB1053 OXA-72; assay: Meropenem potentiation (MPC@8), strain AB1053 OXA-72; format: cell-based, Acinetobacter baumannii; details: minimum BLI concentration inhibiting growth with meropenem 8 μg/mL; tested up to 20 μg/mL
[23] = test system: ECL1002; assay: Aztreonam potentiation (MPC@4), strain ECL1002; details: minimum BLI concentration inhibiting growth with aztreonam 4 μg/mL; tested up to 40 μg/mL
[24] = test system: ec308 SHV-5; assay: Aztreonam potentiation (MPC@4), strain ec308 SHV-5; details: minimum BLI concentration inhibiting growth with aztreonam 4 μg/mL; tested up to 40 μg/mL
[25] = test system: AB1054 OXA-23; assay: Meropenem potentiation (MPC@8), strain AB1054 OXA-23; format: cell-based, Acinetobacter baumannii; details: minimum BLI concentration inhibiting growth with meropenem 8 μg/mL; tested up to 20 μg/mL
[26] = minimum BLI concentration inhibiting growth with tigemonam 4 μg/mL, tested up to 40 μg/mL

CC1(C)[C@H](NC(=O)/C(=N\OCC(=O)O)c2csc(N)n2)C(=O)N1OS(=O)(=O)O [Tigemonam, reference compound]
Tigemonam MIC [1]: >64 µg/mL | Tigemonam MIC ([2]; strain KP1010 SHV-12, tigemonam alone): >64 µg/mL | Tigemonam MIC ([3]; strain ec302 TEM-10, tigemonam alone): >64 µg/mL | Tigemonam MIC ([4]; strain EC1010 CMY-6, tigemonam alone): 16 µg/mL | Tigemonam MIC ([5]; strain ECL1002, tigemonam alone): 32 µg/mL | Tigemonam MIC ([6]; strain ec308 SHV-5, tigemonam alone): >64 µg/mL | Tigemonam MIC [7]: >64 µg/mL

Disodium; 4,4-dihydroxy-8-(1H-triazol-4-ylmethoxy)-5-oxa-4-boranuidabicyclo[4.4.0]deca-1(6),7,9-triene-7-carboxylate [Compound 24]
AZT MPC4 CTX-M-15 KP1009 [8]: X (X = MPC@4 ≤ 5 μg/mL) | BPM MPC1 OXA-48 KP1086 [9]: X (X = MPC@1 ≤ 5 μg/mL) | AZT MPC4 SHV-12 KP1010 [10]: X (X = MPC@4 ≤ 5 μg/mL) | TIG MPC4 CTX-M-14 KP1005 [1, 26]: Z (Z = MPC@4 > 20 μg/mL) | AZT MPC4 TEM-10 ec302 [11]: X (X = MPC@4 ≤ 5 μg/mL) | BPM MPC1 KP1004 KPC-2 [12]: X (X = MPC@1 ≤ 5 μg/mL) | Ki [13]: < 100 nM | Ki [14]: < 100 nM | Ki [15]: < 100 nM | Ki [16]: < 100 nM | Ki [17]: < 100 nM | Ki [18]: < 100 nM | AZT MPC4 CMY-6 EC1010 [19]: X (X = MPC@4 ≤ 5 μg/mL) | AZT MPC4 KPC-2 KP1004 [20]: X (X = MPC@4 ≤ 5 μg/mL) | AZT MPC4 CTX-M-14 KP1005 [21]: X (X = MPC@4 ≤ 5 μg/mL) | TIG MPC4 SHV-12 KP1010 [2, 26]: X (X = MPC@4 ≤ 5 μg/mL) | MPM MPC8 AB1053 OXA-72 [22]: X (X = MPC@1 ≤ 5 μg/mL) | AZT MPC4 ECL1002 [23]: X (X = MPC@4 ≤ 5 μg/mL) | TIG MPC4 TEM-10 ec302 [3, 26]: X (X = MPC@4 ≤ 5 μg/mL) | AZT MPC4 SHV-5 ec308 [24]: X (X = MPC@4 ≤ 5 μg/mL) | TIG MPC4 CMY-6 EC1010 [4, 26]: X (X = MPC@4 ≤ 5 μg/mL) | TIG MPC4 ECL1002 [5, 26]: X (X = MPC@4 ≤ 5 μg/mL) | TIG MPC4 SHV-5 ec308 [6, 26]: X (X = MPC@4 ≤ 5 μg/mL) | MPM MPC8 AB1054 OXA-23 [25]: X (X = MPC@1 ≤ 5 μg/mL) | TIG MPC4 CTX-M-15 KP1009 [7, 26]: X (X = MPC@4 ≤ 5 μg/mL)
